Data: publication PMC9889419 (Pharmacological Reports, 2022)
“And” between values parts separate entries of the source, which are not always exact repeats. Identical values can stand only once. Like-named read-outs stand apart in the source and are kept apart here. Marks after values point to notes of the source that are not given here.

Tests used:
[1] = system: organotypic hippocampal slice cultures; test: Neuroprotection primary screen, excitotoxin kainic acid; assay type: cell-based; settings: kainic acid 20 µM; 10 and 100 µM compound
Description: Compound 2 : ADD t{umber, b890s0 Batch: lB- Date Compteted. Ect\,t""201 0 […]
Excilotoxin: llGinic ncia Insult Duration: l+ Hours Solvent: […]
Ai lxn zopr.,r aZ lxa zopr,r Ae lre zoprta
Bz lr<n zopn er ]ra zopr',t l:+aot a r ooprt/|*aa9o8o l oopM lgaeota t oot,tr,t*gB9o8o t oopM […]
The "Primary screen Experiment" is a qualitative assessment of the ability of a compound to prevent excitotoxic cell dearh. organotypic hippocampal slice clltures are treated with N-methyl-D-aipartate lNuoa; o; kainic acid (KA) to induce neuronal cell death. Propidium iodide (Pl), a membrane-impermeant compound, is included in all welts of the culture plate.
Dying cells have compromised cell membranes, thus Pl may diffuse into the cell, intercalate with DNA and ftuoresce. Thus, the intensity of the Pl fluorescence is proportional to the amount of cell death in the individual slices. Hippocampal slice cultures are treated with the excitotoxin alone, or where indicated above, with the excitotoxin and either one eltu/o investigational compounds at the concentrations indicated. lf neuroprotection occurs as a consequence of the added […]
(§1) been treated with the excitotoxin alone.
(§2) (1 picture or pasted object on this page, not shown here)

murine astrocytes [2] = test: Crystal violet (CV) assay; assay type: cell-based
Description: CV assay. Cells were seeded at a density of 1 × 10^4 cells per well in 96-well plates.

rats [3] = test: Sciatic nerve ligation (SNL) model, von Frey test; assay type: in vivo; settings: ip
[4] = system: organotypic hippocampal slice cultures; test: Neuroprotection primary screen, excitotoxin NMDA; assay type: cell-based; settings: NMDA 10 µM; 10 and 100 µM compound
Excerpt: Gompound 1 : ADD Number: ItSot+ Batct: lE- Date Started:
Compound 2 : ADD Number: Froso Batct: le Date Completed i l|26-M ar -20 1 O […]
Excitotoxin: lNmoa lnsult Duration: la Uouo Solvent:
Primary Screen Results: ffi […]
Al lruuoa rolrr,| A2lr'rrr,tOa r Olrrr,t * --.- A3 lr'rnroa r oprvr + lsaoot+ t oplrl+aesogo iopM
BZ lr.rrr,ron ropr,t , -_-_-- 83 lluoa topt',r * jffi 1 4 t oopM.€sroso 1 oolrM la+eota tooptu*aasoeo roffi […]
The 'Primary screen Experiment" is a qualitative assessment of the ability of a compound to prevent excrtotoxic cell death. organotypic hippocampal slice cultures are treated *ltn r.i-."iivr-o-"spartate (NMDA) or kainic acad (KA) to induce neuronal cell death' Propidium iodide (Pl), a membrane-imper.eant cornpouna, is included in all wells of the culture plate.
Dying cells have compromised *]lT^"Toj*::, ttr. er rnJy oin "" into the cell, intercatate with DNA and fluoresce. Thus, the intensity of the Pl fluorescence is proportional to the amount of cell death in lhe individual itices. ttippocampat slice cullures are treated with the excitotoxin alone, or *i er. inoi"ui"o above, with the excitotoxin and either one -qf]bar-a Investigalional compounds at the concentrations indicated. lf neuroprotectron occurs as a consequence of the added […]
as §1, §2

mice [5] = test: Tail immersion test (local anesthetic activity); assay type: in vivo
Description: The tail immersion test in mice. […] The method was performed by subcutaneous (sc) injection of the tested substance dissolved in saline, at a concentration range 0.06–2%, in a constant volume of 0.2 mL about 1 cm from the root of the mouse tail. Fifteen minutes later, the 3-cm distal part of the tail was immersed into temperature-controlled water (50 ± 0.5 °C). The reaction time (latency until the tail is pulled away) was measured by the means of a chronometer. In this assay the cut-off was 20 s [29].

mice [6] = test: Rotarod test (neurotoxicity); assay type: in vivo; settings: mice;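 further: in vivo neurotoxicity screen run within the NIH Epilepsy Therapy Screening Program (ETSP, formerly Anticonvulsant Screening Program)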
Description: (§3) The assays were carried out within the Epilepsy Therapy Screening Program (ETSP, previously known as the Anticonvulsant Screening Program, ASP), Epilepsy Branch, National Institute of Neurological and Communicative Disorders and Stroke, National Institutes of Health in Rockville, MD, USA [23].
(§4) The obtained compounds were screened for antiseizure activity and neurotoxicity in vivo within the Epilepsy Therapy Screening Program (ETSP, previously known as the Anticonvulsant Screening Program, ASP), Epilepsy Branch, National Institute of Neurological and Communicative Disorders and Stroke, National Institutes of Health in Rockville, MD, USA [23].

mice [7] = test: 6 Hz test; assay type: in vivo; settings: mice
Description: The 6 Hz model test was carried out according to the protocol originally described by Brown et al. [54] and more recently by Barton et al. [55] and Kamiński et al. [47] and is a model of pharmacoresistant epilepsy [56].

rats [8] = test: Rotarod / TOX (neurotoxicity); settings: rats, ip
Description: as §3, §4

mice [9] = test: Formalin test (ETSP, area under the curve); assay type: in vivo; settings: 20.0 mg/kg, ip
guinea pigs [10] = test: Corneal anesthesia; assay type: in vivo
Description: A. Corneal anesthesia. […] The corneal reflex was examined by irritation of right eye conjunctiva (studied eye) and a left eye conjunctiva (control eye) by horsehair. The strength of local anesthetic activity was determined from the moment of solution instillation to the moment of reflex return. The presence or lack of corneal reflex were assessed. The eye conjunctiva irritation was done 6 times (every 5 s) with the interval of 5 min during the first 30 min [31].

mice [11] = test: Subcutaneous pentylenetetrazole seizure test (ScPTZ, SCMET); assay type: in vivo; settings: mice, ip, […]
Description: as §3

rats [12] = assay type: in vivo; settings: ip
guinea pigs [13] = test: Infiltration anesthesia (intradermal wheal test); assay type: in vivo
Description: A painful reaction to a prick of the skin at the centre of the wheal three times and every 5 s with 5 min intervals during the first 30 min of observation was tested. The experiment was continued to achieve a return of a reaction to the prick. The control wheal was done by an intradermal injection of 0.1 mL of 0.9% NaCl [25]. Local anesthesia was determined by calculating the ratio of the number of positive responses (no flinch) to the number of negative responses (flinch).

murine astrocytes [14] = test: MTT assay; assay type: cell-based
Description: Cells were seeded at a density of 1 × 10^4 cells per well in 96 well plates. […] Next, Crystal Dissolving Solution (Cayman) was added to each well.

mice [15] = test: Formalin test (first screening); assay type: in vivo; settings: 30.0 mg/kg, ip
Description: Formalin test. The first screening in doses 15 and 30 mg/kg was performed at the Jagiellonian University-Medical College. […] After 30 min, animals were injected with 20 μL of a 0.5% formalin solution into the plantar surface of the hind paw. The total time spent by animal licking or biting the injected paw was assessed for the following 40 min.

mice [16] = settings: mice
mice [17] = test: Corneal kindling; assay type: in vivo; settings: […], ip
rats [18] = assay type: in vivo; settings: ip; remark: listed apart in the source
rats [19] = test: Maximal electroshock seizure (MES) test; assay type: in vivo; settings: ip
mice [20] = settings: mouse, in vivo
Description: They were also evaluated in the iv pentylenetetrazole (PTZ) test.
Data are expressed as the mean PTZ dose ± SEM for n = 10 that induced clonus or twitch in mice exposed to a particular dose of the test compound

rats [21] = test: SCMET (subcutaneous Metrazol) test; assay type: in vivo; settings: rats, ip, 0.50 h
slices = test: Propidium iodide uptake in slices; assay type: cell-based; settings: 100.00 uM
Description: Anticonvulsant Screeninq Proqram
Solvent Code: DMSO Solvent Prep:
Add Compound Conc,(uM) # of slices % ofTotal Propidium lodide Uptake(mean +,/- S.E.M)

CC[C@H](CO)NCCOc1c(C)cccc1Cl.Cl [Compound 5a, R-(-)-2-((2-(2-chloro-6-methylphenoxy)ethyl)amino)butan-1-ol hydrochloride]
Test Result (neuroprotection) [1]: No neuroprotection observed
impact on proliferation (crystal violet) (murine astrocytes [2]): did not exhibit cytotoxic activity and a notable impact on proliferation
SNL TPE (rats [3]; rat, in vivo): 1 h
SNL: active at (rats [3]; rats, von Frey test): 4 mg/kg
Test Result (neuroprotection) [4]: No neuroprotection
Prolongation of the time reaction (mice [5]; 0.031%): 40.0%
Reaction time to painful stimulus (mice [5]; 0.031%): 4.9 ± 0.9 s
Prolongation of the time reaction (mice [5]; 0.094%): 57.1%
Reaction time to painful stimulus (mice [5]; 0.094%): 5.5 ± 1.6 s
Prolongation of the time reaction (mice [5]; 0.125%): 297.1%
Reaction time to painful stimulus (mice [5]; 0.125%): 13.9 ± 1.8 s
Prolongation of the time reaction (mice [5]; 0.5%): 434.3%
Reaction time to painful stimulus (mice [5]; 0.5%): 18.7 ± 1.3 s
Prolongation of the time reaction (mice [5]; 2.0%): 391.4%
Reaction time to painful stimulus (mice [5]; 2.0%): 17.2 ± 1.9 s
Prolongation of the time reaction (mice [5]; […]): 8.6%
Reaction time to painful stimulus (mice [5]; […]): 3.8 ± 0.5 s
Rotarod TD50 (mice [6]; ip): 54.01 (35.70–64.23) mg/kg
Rotarod TPE (mice [6]; po): 0.25 h
Rotarod TD50 (mice [6]; po): 322.33 (257.98–382.69) mg/kg
6 Hz ED50 (mice [7]; 44 mA, TPE 0.5 h, ip): 52.49 (41.85–67.05) mg/kg
6 Hz TPE (mice [7]; 44 mA, ip): 0.5 h
6 Hz TPE (mice [7]; 44 mA, po): 0.25 h
Rotarod TPE (rats [8]): 0.25 h
Rotarod TD50 (rats [8]): 39.6 (36.2–78.3) mg/kg
Area under the curve, % of control (I phase) (mice [9]): 76.5; t14 = 0.8847%
Area under the curve, % of control (II phase) (mice [9]): 91.5; t14 = 0.5440%
Inhibition of pain reaction (guinea pigs [10]; 0.125%, 5 min): 46.67* %
Inhibition of pain reaction (guinea pigs [10]; 0.125%, 30 min): 0%
Inhibition of pain reaction (guinea pigs [10]; 0.125%, 60 min): 0%
Inhibition of pain reaction (guinea pigs [10]; 0.125%, 120 min): 0%
Inhibition of pain reaction (guinea pigs [10]; 0.5%, 5 min): 80.55*** %
Inhibition of pain reaction (guinea pigs [10]; 0.5%, 30 min): 0%
Inhibition of pain reaction (guinea pigs [10]; 0.5%, 60 min): 0%
Inhibition of pain reaction (guinea pigs [10]; 0.5%, 120 min): 0%
Inhibition of pain reaction (guinea pigs [10]; […], 5 min): 36.11* %
Inhibition of pain reaction (guinea pigs [10]; […], 30 min): 0%
Inhibition of pain reaction (guinea pigs [10]; […], 60 min): 0%
Inhibition of pain reaction (guinea pigs [10]; […], 120 min): 0%
SCMET ED50 (mice [11]): > 70.00 mg/kg
Pilocarpine-induced status epilepticus prevention: result (rats [12]; at 40 mg/kg): no activity
Inhibition of pain reaction (guinea pigs [13]; 0.125%, 5 min): 83.33*** %
Inhibition of pain reaction (guinea pigs [13]; 0.125%, 30 min): 44.44** %
Inhibition of pain reaction (guinea pigs [13]; 0.125%, 24 h): 0%
Inhibition of pain reaction (guinea pigs [13]; 0.5%, 5 min): 100*** %
Inhibition of pain reaction (guinea pigs [13]; 0.5%, 30 min): 72.22*** %
Inhibition of pain reaction (guinea pigs [13]; 0.5%, 60 min): 58.82** %
Inhibition of pain reaction (guinea pigs [13]; 0.5%, 120 min): 52.94** %
Inhibition of pain reaction (guinea pigs [13]; 0.5%, 24 h): 0%
Inhibition of pain reaction (guinea pigs [13]; […], 5 min): 100*** %
Inhibition of pain reaction (guinea pigs [13]; […], 60 min): 33.33* %
Inhibition of pain reaction (guinea pigs [13]; […], 240 min): 16.67%
Inhibition of pain reaction (guinea pigs [13]; […], 24 h): 0%
cytotoxic activity (MTT) (murine astrocytes [14]): did not exhibit cytotoxic activity
% of effect (I phase) (mice [15]): 19.4%
% of effect (II phase) (mice [15]): 55.7%
Time of licking paw ± SEM (I phase) (mice [15]): 72.3 ± 8.7 s
Time of licking paw ± SEM (II phase) (mice [15]): 13.5 ± 5.4 s
MES ED50 (mice [16]; ip): 19.78 (16.16–22.33) mg/kg
MES PI (mice [16]; po): 5.03
MES TPE (mice [16]; po): 0.25 h
MES ED50 (mice [16]; po): 64.12 (52.15–75.37) mg/kg
Corneal kindling seizure score by Racine (0–5) (mice [17]; at 25 mg/kg): 4.3
Hippocampal kindling TPE (rats [18]): 0.25 h
Hippocampal kindling seizure score by Racine (0–5), Rat1 (rats [18]; at 40 mg/kg): 4
Hippocampal kindling seizure score by Racine (0–5), Rat2 (rats [18]; at 40 mg/kg): 0
MES PI (rats [19]): 10.15
MES TPE (rats [19]): 0.25 h
MES ED50 (rats [19]; […]): 3.9 (2.1–6.2) mg/kg

CC[C@@H](CO)NCCOc1c(C)cccc1Cl [Compound 6, S-( +)-2-((2-(2-chloro-6-methylphenoxy)ethyl)amino)butan-1-ol]
influence on seizure threshold (mice [20]): effect was not shown
Test Result (neuroprotection) [4]: No neuroprotection observed
Rotarod TD50 (mice [6]; ip): 47.7 (32.6–68.3) mg/kg
TOX TD50 (mice [6]; ip, 6 Hz report of Aug-2010): 35.8 mg/kg
6 Hz ED50 (mice [7]; 32 mA, […], ip): 20.4 (14.9–25.4) mg/kg
Rotarod TD50 (rats [8]): 44.29 (40.72–47.52) mg/kg
Area under the curve (I phase) (mice [9]): 135.3 ± 36.4
Area under the curve (II phase) (mice [9]): 387.0 ± 110.1
Area under the curve, % of control (I phase) (mice [9]): 69.3% and 69.3; t14 = 1.5800%
Area under the curve (I phase) (mice [9]; listed as 354010): 135.2
Area under the curve (II phase) (mice [9]; listed as 354010): 387.0
Area under the curve, % of control (II phase) (mice [9]; listed as 354010): 57.2%
SCMET ED50 (rats [21]): > 60.0 mg/kg
Pilocarpine-induced status epilepticus prevention: active at (rats [12]): 45 mg/kg
Pilocarpine test: deaths (rats [12]; at 90 mg/kg): 8 deaths in 9 rats
% of Total Propidium Iodide Uptake (mean +/- S.E.M) (slices): 33.1%
Corneal kindling ED50 (mice [17]): 10.50 (3.67–22.09) mg/kg
Hippocampal kindling ED50 (rats [18]; […]): 15.81 mg/kg
MES PI (rats [19]): 4.19
MES TPE (rats [19]): 0.5 h
MES ED50 (rats [19]; 0.5 h (TPE)): 10.58 (6.69–15.38) mg/kg
